Experiment: Toxicokinetics of infigratinib in juvenile rat plasma after oral gavage
Assay type: in vivo, Crl:WI(Han) rat
Conditions: for RAUC: AUC vs first dosing day; for AUC(0-t): female, Crl:WI(Han), rat, plasma, po, 0.1 mg/kg/day
[1] = Female rats, 0.1 mg/kg/day oral, PND 7
[2] = Female rats, 0.1 mg/kg/day oral, PND 12
[3] = Female rats, 0.1 mg/kg/day oral, PND 17
[4] = Female rats, 0.1 mg/kg/day oral, PND 23
[5] = Female rats, 0.1 mg/kg/day oral, PND 35
[6] = Female rats, 0.3 mg/kg/day oral, PND 7
[7] = Female rats, 0.3 mg/kg/day oral, PND 12
[8] = Female rats, 0.3 mg/kg/day oral, PND 17
[9] = Female rats, 0.3 mg/kg/day oral, PND 23
[10] = Female rats, 0.3 mg/kg/day oral, PND 35
[11] = Female rats, 1.0 mg/kg/day oral, PND 7
[12] = Female rats, 1.0 mg/kg/day oral, PND 12
[13] = Female rats, 1.0 mg/kg/day oral, PND 17
[14] = Female rats, 1.0 mg/kg/day oral, PND 23
[15] = Female rats, 1.0 mg/kg/day oral, PND 35
[16] = Male rats, 0.1 mg/kg/day oral, PND 7
[17] = Male rats, 0.1 mg/kg/day oral, PND 12
[18] = Male rats, 0.1 mg/kg/day oral, PND 17
[19] = Male rats, 0.1 mg/kg/day oral, PND 23
[20] = Male rats, 0.1 mg/kg/day oral, PND 35
[21] = Male rats, 0.3 mg/kg/day oral, PND 7
[22] = Male rats, 0.3 mg/kg/day oral, PND 12
[23] = Male rats, 0.3 mg/kg/day oral, PND 17
[24] = Male rats, 0.3 mg/kg/day oral, PND 23
[25] = Male rats, 0.3 mg/kg/day oral, PND 35
[26] = Male rats, 1.0 mg/kg/day oral, PND 7
[27] = Male rats, 1.0 mg/kg/day oral, PND 12
[28] = Male rats, 1.0 mg/kg/day oral, PND 17
[29] = Male rats, 1.0 mg/kg/day oral, PND 23
[30] = Male rats, 1.0 mg/kg/day oral, PND 35

What does the source list for `CCN1CCN(c2ccc(Nc3cc(N(C)C(=O)Nc4c(Cl)c(OC)cc(OC)c4Cl)ncn3)cc2)CC1` [infigratinib, 3-(2,6-Dichloro-3,5-dimethoxy-phenyl)-1-{6-[4-(4-ethyl-piperazin-1-yl)-phenylamino]-pyrimidin-4-yl}-1-methyl-urea]?
Cmax/D [1]: 41.8 (ng/mL)/(mg/kg/day); Tlast [1]: 24 h; Cmax/D [2]: 34.0 (ng/mL)/(mg/kg/day); Tlast [2]: 24 h; RAUC [2]: 0.941 ratio; Cmax/D [3]: 90.6 (ng/mL)/(mg/kg/day); Tlast [3]: 24 h; RAUC [3]: 0.839 ratio; Cmax/D [4]: 7.8 (ng/mL)/(mg/kg/day); Tlast [4]: 12 h; RAUC [4]: 0.108 ratio; Cmax/D [5]: 3.0 (ng/mL)/(mg/kg/day); Tlast [5]: 7 h; RAUC [5]: 0.0325 ratio; Cmax/D [6]: 64.7 (ng/mL)/(mg/kg/day); Tlast [6]: 24 h; Cmax/D [7]: 49.7 (ng/mL)/(mg/kg/day); Tlast [7]: 24 h; RAUC [7]: 0.751 ratio; Cmax/D [8]: 60.2 (ng/mL)/(mg/kg/day); Tlast [8]: 24 h; RAUC [8]: 0.548 ratio; Cmax/D [9]: 7.49 (ng/mL)/(mg/kg/day); Tlast [9]: 24 h; RAUC [9]: 0.103 ratio; Cmax/D [10]: 2.2 (ng/mL)/(mg/kg/day); Tlast [10]: 12 h; RAUC [10]: 0.0249 ratio; Cmax/D [11]: 53.2 (ng/mL)/(mg/kg/day); Tlast [11]: 24 h; Cmax/D [12]: 56.6 (ng/mL)/(mg/kg/day); Tlast [12]: 24 h; RAUC [12]: 1.15 ratio; Cmax/D [13]: 41.2 (ng/mL)/(mg/kg/day); Tlast [13]: 24 h; RAUC [13]: 0.974 ratio; Cmax/D [14]: 10.4 (ng/mL)/(mg/kg/day); Tlast [14]: 24 h; RAUC [14]: 0.141 ratio; Cmax/D [15]: 4.04 (ng/mL)/(mg/kg/day); Tlast [15]: 12 h; RAUC [15]: 0.0566 ratio; Cmax/D [16]: 32.1 (ng/mL)/(mg/kg/day); Tlast [16]: 24 h; Cmax/D [17]: 33.2 (ng/mL)/(mg/kg/day); Tlast [17]: 24 h; RAUC [17]: 1.24 ratio; Cmax/D [18]: 29.9 (ng/mL)/(mg/kg/day); Tlast [18]: 24 h; RAUC [18]: 0.882 ratio; Cmax/D [19]: 5.77 (ng/mL)/(mg/kg/day); Tlast [19]: 12 h; RAUC [19]: 0.12 ratio; Cmax/D [20]: 3.07 (ng/mL)/(mg/kg/day); Tlast [20]: 12 h; RAUC [20]: 0.0613 ratio; Cmax/D [21]: 38.8 (ng/mL)/(mg/kg/day); Tlast [21]: 24 h; Cmax/D [22]: 47.1 (ng/mL)/(mg/kg/day); Tlast [22]: 24 h; RAUC [22]: 1.3 ratio; Cmax/D [23]: 27.1 (ng/mL)/(mg/kg/day); Tlast [23]: 24 h; RAUC [23]: 0.898 ratio; Cmax/D [24]: 7.1 (ng/mL)/(mg/kg/day); Tlast [24]: 24 h; RAUC [24]: 0.187 ratio; Cmax/D [25]: 3.08 (ng/mL)/(mg/kg/day); Tlast [25]: 12 h; RAUC [25]: 0.0524 ratio; Cmax/D [26]: 37.3 (ng/mL)/(mg/kg/day); Tlast [26]: 24 h; Cmax/D [27]: 68.8 (ng/mL)/(mg/kg/day); Tlast [27]: 24 h; RAUC [27]: 1.59 ratio; Cmax/D [28]: 34.1 (ng/mL)/(mg/kg/day); Tlast [28]: 24 h; RAUC [28]: 0.944 ratio; Cmax/D [29]: 11.2 (ng/mL)/(mg/kg/day); Tlast [29]: 24 h; RAUC [29]: 0.233 ratio; Cmax/D [30]: 2.98 (ng/mL)/(mg/kg/day); Tlast [30]: 12 h; RAUC [30]: 0.0648 ratio; AUC(0-t) [1]: 43 ng·h/mL; AUC(0-t) [2]: 40.5 ng·h/mL

Source: paper PMC10784415 (Developmental dynamics : an official publication of the …, 2023)
